Source: ChEMBL document CHEMBL3045060, “Synthesis of some urea and thiourea derivatives of naphtha[1,2-d]thiazol-2-amine as anti-Parkinsonian agents that cause neuroprotection against haloperidol-induced oxidative stress in mice” (2009)

Experiments:
Assay type in all cases: functional
Mus musculus [1] = assay: Neuroprotective activity in haloperidol-induced catalepsy Mus musculus Swiss albino (mouse) model assessed as mean descent time at 100 mg/kg, po administered 30 min before haloperidol challenge measured at 60 min post challenge
Mus musculus [2] = assay: Neuroprotective activity in haloperidol-induced catalepsy Mus musculus Swiss albino (mouse) model assessed as mean descent time at 100 mg/kg, po administered 30 min before haloperidol challenge measured at 120 min post challenge
Mus musculus [3] = assay: Neuroprotective activity in Mus musculus Swiss albino (mouse) model assessed as reduction in haloperidol-induced catalepsy at 100 mg/kg, ip administered 30 min before haloperidol challenge measured for 30 to 180 min; parameters: scale not given: the % may be the effect or the level left; conditions: route intraperitoneal
Mus musculus [4] = assay: (§1) Neuroprotective activity in haloperidol-induced catalepsy Mus musculus Swiss albino (mouse) model assessed as GSH level per gram of brain tissue at 100 mg/kg, po administered 30 min before haloperidol challenge measured after 4 hr post challenge by spectrophotometry (reference value: 23.45 +/- 0.23 ug/g tissue)
Mus musculus [5] = assay: Neuroprotective activity in haloperidol-induced catalepsy Mus musculus Swiss albino (mouse) model assessed as mean descent time at 100 mg/kg, po administered 30 min before haloperidol challenge measured at 150 min post challenge
Mus musculus [6] = assay: Neuroprotective activity in haloperidol-induced catalepsy Mus musculus Swiss albino (mouse) model assessed as mean descent time at 100 mg/kg, po administered 30 min before haloperidol challenge measured at 180 min post challenge
Mus musculus [7] = assay: as §1, with “inhibition of MDA equivalent TBARS release” for “GSH level”, “mg protein in” for “gram of”, “homogenate” for “tissue”, “1.157” for “23.45”, “0.06 nmol/mg protein)” for “0.23 ug/g tissue)”
Mus musculus [8] = assay: Neuroprotective activity in haloperidol-induced catalepsy Mus musculus Swiss albino (mouse) model assessed as mean cumulative descent time at 100 mg/kg, po administered 30 min before haloperidol challenge (reference value: 33 +/- 1.34 min)
Mus musculus [9] = assay: Neuroprotective activity in haloperidol-induced catalepsy Mus musculus Swiss albino (mouse) model assessed as mean descent time at 100 mg/kg, po administered 30 min before haloperidol challenge measured at 90 min post challenge
Mus musculus [10] = assay: Neuroprotective activity in haloperidol-induced catalepsy Mus musculus Swiss albino (mouse) model assessed as mean descent time at 100 mg/kg, po administered 30 min before haloperidol challenge measured at 30 min post challenge
Mus musculus [11] = assay: (§2) Neuroprotective activity in haloperidol-induced catalepsy Mus musculus Swiss albino (mouse) model assessed as Cu-Zn-SOD activity per gram protein in brain homogenate at 100 mg/kg, po administered 30 min before haloperidol challenge measured after 4 hr post challenge by NBT reduction assay (reference value: 1.794 +/- 0.03 U/g protein)
Mus musculus [12] = assay: as §2, with “GSH-Px” for “Cu-Zn-SOD”, “mg” for “gram”, “spectrophotometry” for “NBT reduction assay”, “2.129” for “1.794”, “0.06 U/mg” for “0.03 U/g”

Q: How did the Time (Mus musculus [1]) turn out when `COc1ccccc1NC(=O)Nc1nc2c(ccc3ccccc32)s1` was run?
A: 28 s

Q: What about the Time (Mus musculus [2]) of the same molecule?
A: 87 s

Q: And the Activity (Mus musculus [3])?
A: 76.9%

Q: And the Activity (Mus musculus [4])?
A: 16.8 µg/g

Q: What about the Time (Mus musculus [5]) of the same molecule?
A: 109 s

Q: And the Time (Mus musculus [6])?
A: 108 s

Q: And the Activity (Mus musculus [7])?
A: 2.504 nmol/mg protein

Q: What about the Time (Mus musculus [8]) of the same molecule?
A: 6.43 min

Q: And the Time (Mus musculus [9])?
A: 43 s

Q: What about the Time (Mus musculus [10]) of the same molecule?
A: 11 s

Q: And the Activity (Mus musculus [11])?
A: 1.622 U/g protein

Q: What about the Activity (Mus musculus [12]) of the same molecule?
A: 1.83 U/mg
